Assay results reported in PubChem BioAssay AID2060892 (Molecular Pharmacology Branch, DTP, NCI, 2025).

Tested on: HOP-62 complex spheroids with HUVEC/MSC, viability
Test: Anticancer human tumor HOP-62 cell line growth inhibition [RAS];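 also: spheroids exposed to agents for seven days before readout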;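 as to viability, T/C: 100% = DMSO vehicle control viability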
Conditions: for IC50: curve of first compound; for viability, T/C: stronger effect = lower value
In short: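 Multi-cell-type spheroids: tumor cells plus HUVEC endothelial cells and mesenchymal stem cells. RAS-pathway inhibitors were combined with targeted agents, each dosed in half-log steps down from clinical Cmax, or from 10 microM when Cmax was unknown.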

[1] = second compound 0.000949 µM, first compound 0.0316 µM
[2] = second compound 0.000949 µM, first compound 0.1 µM
[3] = second compound 0.000949 µM, first compound 0.316 µM
[4] = second compound 0.000949 µM, first compound 1 µM
[5] = second compound 0.000949 µM, first compound 3.16 µM
[6] = second compound 0.000949 µM, first compound 10 µM
[7] = second compound 0.003 µM, first compound 0.0316 µM
[8] = second compound 0.003 µM, first compound 0.1 µM
[9] = second compound 0.003 µM, first compound 0.316 µM
[10] = second compound 0.003 µM, first compound 1 µM
[11] = second compound 0.003 µM, first compound 3.16 µM
[12] = second compound 0.003 µM, first compound 10 µM
[13] = second compound 0.00949 µM, first compound 0.0316 µM
[14] = second compound 0.00949 µM, first compound 0.1 µM
[15] = second compound 0.00949 µM, first compound 0.316 µM
[16] = second compound 0.00949 µM, first compound 1 µM
[17] = second compound 0.00949 µM, first compound 3.16 µM
[18] = second compound 0.00949 µM, first compound 10 µM
[19] = second compound 0.03 µM, first compound 0.0316 µM
[20] = second compound 0.03 µM, first compound 0.1 µM
[21] = second compound 0.03 µM, first compound 0.316 µM
[22] = second compound 0.03 µM, first compound 1 µM
[23] = second compound 0.03 µM, first compound 3.16 µM
[24] = second compound 0.03 µM, first compound 10 µM
[25] = second compound 0.0949 µM, first compound 0.0316 µM
[26] = second compound 0.0949 µM, first compound 0.1 µM
[27] = second compound 0.0949 µM, first compound 0.316 µM
[28] = second compound 0.0949 µM, first compound 1 µM
[29] = second compound 0.0949 µM, first compound 3.16 µM
[30] = second compound 0.0949 µM, first compound 10 µM
[31] = second compound 0.3 µM, first compound 0.0316 µM
[32] = second compound 0.3 µM, first compound 0.1 µM
[33] = second compound 0.3 µM, first compound 0.316 µM
[34] = second compound 0.3 µM, first compound 1 µM
[35] = second compound 0.3 µM, first compound 3.16 µM
[36] = second compound 0.3 µM, first compound 10 µM

Compound: CC1(O)CCCC1n1c(=O)c(C(F)F)cc2cnc(NC3CCN(S(C)(=O)=O)CC3)nc21 (stereo not drawn) + CCn1c(-c2cc(N3CCN(C)CC3)cnc2C(C)OC)c2c3cc(ccc31)-c1csc(n1)CC(NC(=O)C1CC1C)C(=O)N1CCCC(N1)C(=O)OCC(C)(C)C2
- IC50 (second compound 0.000949 µM): 5.05 µM
- IC50 (second compound 0.003 µM): 3.77 µM
- IC50 (second compound 0.00949 µM): 1.06 µM
- IC50 (second compound 0.03 µM): < 0.0316 µM
- IC50 (second compound 0.0949 µM): < 0.0316 µM
- IC50 (second compound 0.3 µM): < 0.0316 µM
- viability, T/C [1]: 104%
- viability, T/C [2]: 87.2%
- viability, T/C [3]: 57.5%
- viability, T/C [4]: 80.3%
- viability, T/C [5]: 83.6%
- viability, T/C [6]: 2.49%
- viability, T/C [7]: 87.4%
- viability, T/C [8]: 65.2%
- viability, T/C [9]: 58.9%
- viability, T/C [10]: 62.3%
- viability, T/C [11]: 61.1%
- viability, T/C [12]: 2.49%
- viability, T/C [13]: 69.7%
- viability, T/C [14]: 53.8%
- viability, T/C [15]: 57.8%
- viability, T/C [16]: 46.5%
- viability, T/C [17]: 40.6%
- viability, T/C [18]: 2.35%
- viability, T/C [19]: 49.7%
- viability, T/C [20]: 44.1%
- viability, T/C [21]: 36.5%
- viability, T/C [22]: 49.3%
- viability, T/C [23]: 23.2%
- viability, T/C [24]: 2.84%
- viability, T/C [25]: 32.5%
- viability, T/C [26]: 33.9%
- viability, T/C [27]: 33.8%
- viability, T/C [28]: 37.1%
- viability, T/C [29]: 19.5%
- viability, T/C [30]: 3.11%
- viability, T/C [31]: 36.9%
- viability, T/C [32]: 34.2%
- viability, T/C [33]: 34.3%
- viability, T/C [34]: 30.9%
- viability, T/C [35]: 20.8%
- viability, T/C [36]: 3.29%

Compound: CCC(CC)c1cc(NC2CCC(N)C2)n2nccc2n1 (stereo not drawn) + CCn1c(-c2cc(N3CCN(C)CC3)cnc2C(C)OC)c2c3cc(ccc31)-c1csc(n1)CC(NC(=O)C1CC1C)C(=O)N1CCCC(N1)C(=O)OCC(C)(C)C2
- IC50 (second compound 0.000949 µM): 2.04 µM
- IC50 (second compound 0.003 µM): 1.89 µM
- IC50 (second compound 0.00949 µM): 1.56 µM
- IC50 (second compound 0.03 µM): 1.27 µM
- IC50 (second compound 0.0949 µM): 1.02 µM
- IC50 (second compound 0.3 µM): 0.0316 µM
- viability, T/C [1]: 116%
- viability, T/C [2]: 125%
- viability, T/C [3]: 94.3%
- viability, T/C [4]: 128%
- viability, T/C [5]: 9.48%
- viability, T/C [6]: 1.8%
- viability, T/C [7]: 91.4%
- viability, T/C [8]: 99.2%
- viability, T/C [9]: 91.5%
- viability, T/C [10]: 121%
- viability, T/C [11]: 8.75%
- viability, T/C [12]: 1.01%
- viability, T/C [13]: 74.9%
- viability, T/C [14]: 63.3%
- viability, T/C [15]: 80%
- viability, T/C [16]: 93.5%
- viability, T/C [17]: 5.73%
- viability, T/C [18]: 0.77%
- viability, T/C [19]: 54%
- viability, T/C [20]: 56.3%
- viability, T/C [21]: 57.9%
- viability, T/C [22]: 81.2%
- viability, T/C [23]: 2.62%
- viability, T/C [24]: 0.93%
- viability, T/C [25]: 40.1%
- viability, T/C [26]: 49.5%
- viability, T/C [27]: 52.8%
- viability, T/C [28]: 61.5%
- viability, T/C [29]: 2.26%
- viability, T/C [30]: 2.34%
- viability, T/C [31]: 33.1%
- viability, T/C [32]: 43.1%
- viability, T/C [33]: 47.9%
- viability, T/C [34]: 50.8%
- viability, T/C [35]: 6.58%
- viability, T/C [36]: 1.42%

Compound: Cc1nc(N2CCC3(CC2)COC(C)C3N)c(CO)nc1Sc1ccnc(N)c1Cl (stereo not drawn) + CCn1c(-c2cc(N3CCN(C)CC3)cnc2C(C)OC)c2c3cc(ccc31)-c1csc(n1)CC(NC(=O)C1CC1C)C(=O)N1CCCC(N1)C(=O)OCC(C)(C)C2
- IC50 (second compound 0.000949 µM): 1.88 µM
- IC50 (second compound 0.003 µM): 0.439 µM
- IC50 (second compound 0.00949 µM): 0.124 µM
- IC50 (second compound 0.03 µM): < 0.0316 µM
- IC50 (second compound 0.0949 µM): < 0.0316 µM
- IC50 (second compound 0.3 µM): < 0.0316 µM
- viability, T/C [1]: 110%
- viability, T/C [2]: 98.2%
- viability, T/C [3]: 50.6%
- viability, T/C [4]: 63.7%
- viability, T/C [5]: 56.7%
- viability, T/C [6]: 21.8%
- viability, T/C [7]: 83.8%
- viability, T/C [8]: 66.5%
- viability, T/C [9]: 47.2%
- viability, T/C [10]: 45.6%
- viability, T/C [11]: 33.1%
- viability, T/C [12]: 18.4%
- viability, T/C [13]: 71.4%
- viability, T/C [14]: 49.3%
- viability, T/C [15]: 40.6%
- viability, T/C [16]: 31.8%
- viability, T/C [17]: 24%
- viability, T/C [18]: 19%
- viability, T/C [19]: 46.5%
- viability, T/C [20]: 40.6%
- viability, T/C [21]: 36.9%
- viability, T/C [22]: 24.6%
- viability, T/C [23]: 16.8%
- viability, T/C [24]: 20.9%
- viability, T/C [25]: 37.9%
- viability, T/C [26]: 32.6%
- viability, T/C [27]: 27.4%
- viability, T/C [28]: 20.6%
- viability, T/C [29]: 13.9%
- viability, T/C [30]: 17.9%
- viability, T/C [31]: 37.1%
- viability, T/C [32]: 29.9%
- viability, T/C [33]: 28.8%
- viability, T/C [34]: 19.9%
- viability, T/C [35]: 18.4%
- viability, T/C [36]: 16%

Compound: NC1c2ccccc2OC12CCN(c1cnc3c(N4CCCc5ncccc54)n[nH]c3n1)CC2 (stereo not drawn) + CCn1c(-c2cc(N3CCN(C)CC3)cnc2C(C)OC)c2c3cc(ccc31)-c1csc(n1)CC(NC(=O)C1CC1C)C(=O)N1CCCC(N1)C(=O)OCC(C)(C)C2
- IC50 (second compound 0.000949 µM): 0.18 µM
- IC50 (second compound 0.003 µM): 0.072 µM
- IC50 (second compound 0.00949 µM): < 0.0316 µM
- IC50 (second compound 0.03 µM): < 0.0316 µM
- IC50 (second compound 0.0949 µM): < 0.0316 µM
- IC50 (second compound 0.3 µM): < 0.0316 µM
- viability, T/C [1]: 87.9%
- viability, T/C [2]: 65.9%
- viability, T/C [3]: 33.9%
- viability, T/C [4]: 28.5%
- viability, T/C [5]: 28.1%
- viability, T/C [6]: 17.6%
- viability, T/C [7]: 72.5%
- viability, T/C [8]: 40.5%
- viability, T/C [9]: 25.3%
- viability, T/C [10]: 25%
- viability, T/C [11]: 17.7%
- viability, T/C [12]: 14%
- viability, T/C [13]: 47.4%
- viability, T/C [14]: 29.3%
- viability, T/C [15]: 25%
- viability, T/C [16]: 17.9%
- viability, T/C [17]: 16.5%
- viability, T/C [18]: 13.3%
- viability, T/C [19]: 42.9%
- viability, T/C [20]: 28.7%
- viability, T/C [21]: 22.4%
- viability, T/C [22]: 16.7%
- viability, T/C [23]: 11.3%
- viability, T/C [24]: 13.6%
- viability, T/C [25]: 30.5%
- viability, T/C [26]: 24.8%
- viability, T/C [27]: 18.6%
- viability, T/C [28]: 17.5%
- viability, T/C [29]: 11.2%
- viability, T/C [30]: 12.8%
- viability, T/C [31]: 31.9%
- viability, T/C [32]: 23.6%
- viability, T/C [33]: 18.4%
- viability, T/C [34]: 15.6%
- viability, T/C [35]: 12.5%
- viability, T/C [36]: 14.3%
